Source: patent US20020156094A1, “Sulfonamide interleukin-1beta converting enzyme inhibitors” (Warner-Lambert Company, priority 1996, published 2002)
Values joined by “and” are separate entries in the source; they are usually repeats but may differ in a detail not shown here. Identical values can stand only once.

Experiments:
Assay type in all cases: biochemical
[1] = molecular target: T1, ICE (interleukin-1β converting enzyme, Caspase-1) (Homo sapiens, UniProt P29466); test: ICE Ki fluorescence assay (Ac-Tyr-Val-Ala-Asp-AMC hydrolysis); settings: ICE 0.24 nM, 15 μM Ac-Tyr-Val-Ala-Asp-AMC, reversible competitive model
T1 sequence (P29466 120-297 limits assumed): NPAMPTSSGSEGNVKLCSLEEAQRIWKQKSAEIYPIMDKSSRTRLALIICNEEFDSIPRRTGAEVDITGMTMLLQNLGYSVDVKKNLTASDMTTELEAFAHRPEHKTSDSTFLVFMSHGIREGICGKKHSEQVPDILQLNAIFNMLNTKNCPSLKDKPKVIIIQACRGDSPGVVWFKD
T1 sequence (P29466 317-404 limits assumed): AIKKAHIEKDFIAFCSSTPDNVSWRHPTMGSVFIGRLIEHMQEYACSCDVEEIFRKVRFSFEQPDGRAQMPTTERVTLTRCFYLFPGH
Procedure: Substrate hydrolysis is monitored for 300 seconds by observing the fluorescence of released AMC using excitation at 380 nm and emission at 460 nm. Mean rates of substrate hydrolysis are evaluated by linear-regression analysis of the fluorescence vs time traces. To evaluate Ki, plots of percent inhibition vs inhibitor concentration are fit by non-linear regression to a reversible, competitive model: [formula]
Where the competition factor (1+[S]/KM)=2.

[2] = molecular target: T1, ICE (interleukin-1β converting enzyme, Caspase-1); test: ICE Colorimetric Dose-Response (IC50) Assay; settings: ICE approx. 24 nM, 60 min preincubation, 50 μM Ac-Tyr-Val-Ala-Asp-pNA, 25° C.
Procedure: ICE Colorimetric Dose-Response (IC50) Assay
(§1) Diluted inhibitor stocks are prepared by two-fold serial dilution from a primary stock whose concentration is selected (based on screening results or on prior attempts at IC50 evaluation) to achieve approximately 95% inhibition in the most concentrated well. Aliquots of each dilution are transferred to a microtitre plate in triplicate.
(§2) ICE enzyme is diluted to approximately 24 nM in HGE buffer (100 mM HEPES pH 7.5, 0.5 mM EDTA, 20% glycerol, 0.1% Bovine Serum Albumin (BSA)), and activated by adding dithiothreitol (DTT) to a final concentration of 5 mM. The activated enzyme is then aliquoted into wells containing inhibitor or vehicle, and the plate is preincubated for 60 minutes at ambient temperature. Substrate (Ac-Tyr-Val-Ala-Asp-pNA) is added to each well to a final concentration of 50 μM, and plates are placed in the microtitre plate-reader thermostated to 25° C. Beginning 5 minutes after addition of substrate, absorbance (405 nm) of wells is monitored for 1 hour, and activity is calculated as the mean rate of change in absorbance during this interval.

Ich-2 (Caspase-4) = molecular target: T2, Ich-2 (Caspase-4) (Homo sapiens, UniProt P49662); test: Ich-2 (Caspase-4) Colorimetric Dose-Response (IC50) Assay; settings: enzyme 64 nM, substrate Ac-Leu-Glu-Val-Asp-pNA
T2 sequence (P49662 81-270 limits assumed): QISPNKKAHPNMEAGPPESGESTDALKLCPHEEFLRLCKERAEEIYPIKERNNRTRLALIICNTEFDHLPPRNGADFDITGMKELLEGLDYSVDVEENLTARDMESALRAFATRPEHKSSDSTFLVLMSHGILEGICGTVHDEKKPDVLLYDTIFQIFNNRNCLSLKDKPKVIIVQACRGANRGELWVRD
T2 sequence (P49662 290-377 limits assumed): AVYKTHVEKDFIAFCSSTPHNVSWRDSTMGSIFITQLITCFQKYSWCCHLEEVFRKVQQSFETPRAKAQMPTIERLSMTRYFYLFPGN
Procedure: as §1, §2
Ich-2 (Caspase-4) Colorimetric Dose-Response (IC50) Assay
Inhibition of Ich-2 enzyme is assayed as described above for ICE, except that enzyme is used at 64 nM, and 60 µM of the Ich-2-specific substrate Ac-Leu-Glu-Val-Asp-pNA is used instead of the ICE substrate Ac-Tyr-Val-Ala-Asp-pNA.

Compound | Ki [1] | IC50 [2] | IC50 (Ich-2 (Caspase-4))
O=C(O)CC(NC(=O)OCc1ccccc1)C(=O)CNS(=O)(=O)Cc1ccccc1 (stereo not shown) [Example 2c, 3-Benzyloxycarbonylamino-4-oxo-5-phenylmethanesulfonyl-amino-pentanoic acid] | 18 µM and 14 µM | 168 µM | 
O=C(O)CC(NC(=O)OCc1ccccc1)C(=O)CNS(=O)(=O)CCC1CCCCC1 (stereo not shown) [Example 2g, 3-Benzyloxycarbonylamino-5-(2-cyclohexyl-ethanesulfonylamino)-4-oxo-pentanoic acid] | 33 µM | 136 µM | 314 µM
CC1(C)C2CC[C@]1(CS(=O)(=O)NCC(=O)C(CC(=O)O)NC(=O)OCc1ccccc1)C(=O)C2 (stereo partly drawn) [Example 2i, 3-Benzyloxycarbonylamino-5-(7,7-dimethyl-2-oxo-bicyclo[2.2.1]hept-1-(R)-ylmethanesulfonylamino)-4-oxo-pentanoic acid] | 30.1 µM | 25 µM | 59 µM
CC1(C)C2CCC1(CS(=O)(=O)NCC(=O)C(CC(=O)O)NC(=O)OCc1ccccc1)C(=O)C2 [Example 2l, 3-Benzyloxycarbonylamino-5-(7.7-dimethyl-2-oxo-bicyclo[2.2.1]hept-1-(S)-ylmethanesulfonylamino)-4-oxo-pentanoic acid] | 1.4 µM | 28 µM | 935 µM
CC1(C)C2CCC1(CS(=O)(=O)NCC(=O)[C@@H](CC(=O)O)NC(=O)OCc1ccccc1)CC2 [Example 2m, (R)-3-Benzyloxycarbonylamino-5-(7,7-dimethyl-bicyclo[2.2.1]hept-1-ylmethane-sulfonylamino)-4-oxo-pentanoic acid] | 2.8 µM | 35.3 µM | 
CC(C)C(NC(=O)C(CCC(=O)O)NC(=O)CCc1ccccc1)C(=O)NC(CC(=O)O)C(=O)CNS(=O)(=O)CCc1ccccc1 (stereo not shown) [Example 3c, 3-{2-[4-Carboxy-2-(3-phenyl-propionylamino)-butyrylamino]-3-methyl-butyrylamino}-4-oxo-5-(2-phenyl-ethanesulfonylamino)-pentanoic acid] | 0.0051 µM | 0.009 µM | 3.4 µM
CC(=O)NC(Cc1ccc(O)cc1)C(=O)NC(CCC(=O)O)C(=O)NC(C(=O)NC(CC(=O)O)C(=O)CNS(=O)(=O)CCc1ccccc1)C(C)C (stereo not shown) [Example 3d] | 0.0078 µM | 0.003 µM | 0.9 µM
CC(=O)NC(C(=O)NC(CC(=O)O)C(=O)CNS(=O)(=O)C[C@]12CCC(CC1=O)C2(C)C)C(C)C (stereo partly drawn) [Example 4a, 3-(2-Acetylamino-3-methyl-butyrylamino)-5-(7,7-dimethyl-2-oxo-bicyclo [2.2.1]hept-1-(S)-ylmethanesulfonylamino)-4-oxo-pentanoic acid] | 0.27 µM | 7.6 µM | 
CC(NC(=O)C(NC(=O)OCc1ccccc1)C(C)C)C(=O)NC(CC(=O)O)C(=O)CNS(=O)(=O)CC12CCC(CC1=O)C2(C)C (stereo not shown) [Example 4c, 3-[2-(2-Benzyloxycarbonylamino-3-methyl-butyrylamino)-propionylamino]-5-(7,7-dimethyl-2-oxo-bicyclo[2.2.1]hept-1-ylmethanesulfonylamino)-4-oxo-pentanoic acid] | 0.001 µM | 0.015 µM | 8.5 µM
CC(C)C(NC(=O)C(CCC(=O)O)NC(=O)CCc1ccccc1)C(=O)NC(CC(=O)O)C(=O)CNS(=O)(=O)CC12CCC(CC1=O)C2(C)C (stereo not shown) [Example 4d] | 0.0016 µM | 0.003 µM | 1.6 µM
CC(=O)NC(Cc1ccc(O)cc1)C(=O)NC(CCC(=O)O)C(=O)NC(C(=O)NC(CC(=O)O)C(=O)CNS(=O)(=O)CC12CCC(CC1=O)C2(C)C)C(C)C (stereo not shown) [Example 4e, 3-(2-{2-[2-Acetylamino-3-(4-hydroxy-phenyl)-propionylamino]-4-carboxy-butyrylamino}-3-methyl-butyrylamino)-5-(7,7-dimethyl-2-oxo-bicyclo[2.2.1]hept-1-ylmethanesulfonylamino)-4-oxo-pentanoic acid] | 0.00011 µM | 0.002 µM | 0.7 µM
O=C(O)C[C@H](NC(=O)CN1CCc2ccccc2C1=O)C(=O)CNS(=O)(=O)c1ccccc1 [Example 5a, 3-(1,2,3,4,-Tetrahydro-1-oxo-isoquinoline-2-yl)acetamino-5-benzenesulfonyl amino-4-oxo-pentanoic acid] | 105 µM | 586 µM | 
O=C(O)CC(NC(=O)CN1CCc2ccccc2C1=O)C(=O)CNS(=O)(=O)Cc1ccccc1 (stereo not shown) [Example 5d, 4-Oxo-3-[2-(1-oxo-3,4-dihydro-1H-isoquinolin-2-yl)-acetylamino]-5-phenylmethanesulfonylamino-pentanoic acid] | 27 µM | 234 µM | 

The remaining lines, values ahead:

Ki [1] | IC50 [2] | IC50 (Ich-2 (Caspase-4)) | Compound
11 µM | 73 µM |  | O=C(O)CC(NC(=O)OCc1ccccc1)C(=O)CNS(=O)(=O)CCc1ccccc1 (stereo not shown) [Example 2a, 3-Benzyloxycarbonylamino-4-oxo-5-(2-phenylethane-sulfonylamino)-pentanoic acid]
37 µM | 291 µM |  | O=C(O)CC(NC(=O)OCc1ccccc1)C(=O)CNS(=O)(=O)c1ccccc1 (stereo not shown) [Example 2d, 5-Benzenesulfonylamino-3-benzyloxycarbonylamino-4-oxo-pentanoic acid]
735 µM | 1830 µM |  | CS(=O)(=O)NCC(=O)C(CC(=O)O)NC(=O)OCc1ccccc1 (stereo not shown) [Example 2e, 3-Benzyloxycarbonylamino-5-methanesulfonylamino-4-oxo-pentanoic acid]
22 µM | 174 µM | 1010 µM | O=C(O)CC(NC(=O)OCc1ccccc1)C(=O)CNS(=O)(=O)c1cccc2ccccc12 (stereo not shown) [Example 2f, 3-Benzyloxycarbonylamino-5-(naphthalene-1-sulfonylamino)-4-oxo-pentanoic acid]
16 µM | 55.6 µM | 199 µM | O=C(O)CC(NC(=O)OCc1ccccc1)C(=O)CNS(=O)(=O)CCc1cccc2ccccc12 (stereo not shown) [Example 2h, 3-Benzyloxycarbonylamino-5-(2-naphthalen-1-yl-ethanesulfonylamino)-4-oxo-pentanoic acid]
65 µM | 194 µM | 159 µM | O=C(O)CC(NC(=O)OCc1ccccc1)C(=O)CNS(=O)(=O)CC1CCc2ccccc21 (stereo not shown) [Example 2j, 3-Benzyloxycarbonylamino-5-(indan-1-ylmethanesulfonylamino)-4-oxo-pentanoic acid]
22 µM |  |  | O=C(O)CC(NC(=O)OCc1ccccc1)C(=O)CNS(=O)(=O)CC1(F)c2ccccc2-c2ccccc21 (stereo not shown) [Example 2k, 3-Benzyloxycarbonylamino-5-(9-fluoro-9H-fluoren-9-ylmethanesulfonylamino)-4-oxo-pentanoic acid]
0.007 µM | 0.072 µM | 18 µM | CC(NC(=O)C(NC(=O)OCc1ccccc1)C(C)C)C(=O)NC(CC(=O)O)C(=O)CNS(=O)(=O)CCc1ccccc1 (stereo not shown) [Example 3a, 3-[2-(2-Benzyloxycarbonylamino-3-methyl-butyrylamino)-propionylamino]-4-oxo-5-(2-phenyl-ethanesulfonylamino)-pentanoic acid]
0.013 µM | 0.025 µM | 4.2 µM | CC(C)C(NC(=O)C(CCC(=O)O)NC(=O)OCc1ccccc1)C(=O)NC(CC(=O)O)C(=O)CNS(=O)(=O)CCc1ccccc1 (stereo not shown) [Example 3b, 3-[2-(2-Benzyloxycarbonylamino-4-carboxy-butyrylamino)-3-methyl-butyrylamino]-4-oxo-5-(2-phenyl-ethanesulfonylamino)-pentanoic acid]
45 µM | 371 µM |  | O=C(O)C[C@H](NC(=O)CN1CCc2ccccc2C1=O)C(=O)CNS(=O)(=O)CCc1ccccc1 [Example 5c, (S)-4-Oxo-3-[2-(1-oxo-3,4-dihydro-1H-isoquinolin-2-yl)-acetylamino]-5-(2-phenyl-ethanesulfonylamino)-pentanoic acid]
